How the values were obtained:
Assay type in all cases: in vivo
[1] = test system: Amaranthus retroflexus (AMARE); assay: Post-emergence herbicidal action against AMARE
In short: (§1)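 Values are percent visual activity (0% like control, 100% plants dead) after about 3 weeks in the greenhouse. Treatment: post-emergence spray at one-leaf stage, 600 l/ha spray volume, 0.5% additive, doses 320 g/ha or lower.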

[2] = test system: Alopecurus myosuroides (ALOMY); assay: Pre-emergence herbicidal action against ALOMY; settings: scored visually after about 3 weeks, 100% = plants have died
In short: (§2)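 Read-out is visual percent damage relative to untreated pots, with 100% meaning dead plants and 0% meaning no difference, assessed roughly three weeks after treatment. Compounds were applied pre-emergence to the covering soil at up to 320 g/ha.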

[3] = test system: Matricaria inodora (MATIN); assay: Post-emergence herbicidal action against MATIN; settings: dosage 320 g/ha
In short: as §1

[4] = test system: Amaranthus retroflexus (AMARE); assay: Pre-emergence herbicidal action against AMARE; settings: visual scoring after about 3 weeks vs untreated controls
In short: as §2

[5] = test system: Alopecurus myosuroides (ALOMY); assay: Post-emergence herbicidal action against ALOMY; settings: visual rating about 3 weeks after treatment vs untreated controls (100% = plants have died, 0% = like control plants)
In short: as §1

[6] = test system: Polygonum convolvulus (POLCO); assay: Pre-emergence herbicidal action against POLCO
In short: as §2

[7] = test system: Pharbitis purpurea (PHBPU); assay: Pre-emergence herbicidal action against PHBPU
In short: as §2

[8] = test system: Polygonum convolvulus (POLCO); assay: Post-emergence herbicidal action against POLCO
In short: as §1

[9] = test system: Abutilon theophrasti (ABUTH); assay: Pre-emergence herbicidal action against ABUTH; settings: Dosage column 320 g/ha (title prints 3200 g/ha); scored visually after about 3 weeks; 100% = plants have died
In short: as §2

[10] = test system: Matricaria inodora (MATIN); assay: Pre-emergence herbicidal action against MATIN
In short: as §2

Lolium rigidum (LOLRI) [11] = assay: Post-emergence herbicidal action against LOLRI
In short: as §1

Avena fatua (AVEFA) [12] = assay: Pre-emergence herbicidal action against AVEFA; settings: visual scoring after about 3 weeks vs untreated controls
In short: as §2

[13] = test system: Verconica persica (VERPE); assay: Pre-emergence herbicidal action against VERPE
In short: as §2

Avena fatua (AVEFA) [14] = assay: Post-emergence herbicidal action against AVEFA; settings: visual rating about 3 weeks after treatment
In short: as §1

[15] = test system: Verconica persica (VERPE); assay: Post-emergence herbicidal action against VERPE
In short: as §1

Viola tricolor (VIOTR) [16] = assay: Pre-emergence herbicidal action against VIOTR
In short: as §2

Lolium rigidum (LOLRI) [17] = assay: Pre-emergence herbicidal action against LOLRI
In short: as §2

Oryza sativa (ORYSA) = settings: crop plant compatibility, 80 g/ha, effect in comparison to untreated controls
In short: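 Foliar application at the one-leaf stage: WP/EC formulation, 0.5% additive, 600 l/ha water. Greenhouse-grown in sandy loam. Endpoint is visual % injury relative to untreated controls at about 3 weeks.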

Setaria viridis (SETVI) [18] = assay: Post-emergence herbicidal action against SETVI
In short: as §1

Viola tricolor (VIOTR) [19] = assay: Post-emergence herbicidal action against VIOTR
In short: as §1

[20] = test system: Echinochloa crus-galli (ECHCG); assay: Pre-emergence herbicidal action against ECHCG
In short: as §2

[21] = test system: Echinochloa crus-galli (ECHCG); assay: Post-emergence herbicidal action against ECHCG
In short: as §1

Setaria viridis (SETVI) [22] = assay: Pre-emergence herbicidal action against SETVI
In short: as §2

[23] = test system: Abutilon theophrasti (ABUTH); assay: Post-emergence herbicidal action against ABUTH; settings: visual rating about 3 weeks after treatment vs untreated controls (100% = plants have died, 0% = like control plants)
In short: as §1

[24] = test system: Pharbitis purpurea (PHBPU); assay: Post-emergence herbicidal action against PHBPU
In short: as §1

[25] = 320 g/ha, visual rating about 3 weeks after treatment

## COC(=O)CNC(=O)[C@@H](C)Oc1nn(-c2ccccn2)c(-c2cncc(F)c2)c1Cl [Example I-185]
[1]; [25]
  Post-emergence action against AMARE in %: 80%
[2]; 80 g/ha
  Pre-emergence action against ALOMY: 80%
[2]; 320 g/ha
  Pre-emergence action against ALOMY: 90%
[3]
  Post-emergence action against MATIN in %: 80%
[4]; 80 g/ha
  Pre-emergence action against AMARE in %: 100%
[4]; 320 g/ha
  Pre-emergence action against AMARE in %: 100%
[5]; 320 g/ha
  Post-emergence action against ALOMY in %: 80%
[6]; dosage 80 g/ha
  Pre-emergence action against POLCO in %: 80%
[6]; dosage 320 g/ha
  Pre-emergence action against POLCO in %: 90%
[7]; dosage 80 g/ha
  Pre-emergence action against PHBPU in %: 80%
[7]; dosage 320 g/ha
  Pre-emergence action against PHBPU in %: 90%
[8]; dosage 320 g/ha
  Post-emergence action against POLCO in %: 80%
[9]
  Pre-emergence action against ABUTH: 80%
[10]; dosage 80 g/ha
  Pre-emergence action against MATIN in %: 80%
[10]; dosage 320 g/ha
  Pre-emergence action against MATIN in %: 90%
Lolium rigidum (LOLRI) [11]; dosage 80 g/ha
  Post-emergence action against LOLRI in %: 80%
Lolium rigidum (LOLRI) [11]; dosage 320 g/ha
  Post-emergence action against LOLRI in %: 80%
Avena fatua (AVEFA) [12]; 320 g/ha
  Pre-emergence action against AVEFA in %: 90%
[13]; dosage 80 g/ha
  Pre-emergence action against VERPE in %: 80%
[13]; dosage 320 g/ha
  Pre-emergence action against VERPE in %: 90%
Avena fatua (AVEFA) [14]; 320 g/ha
  Post-emergence action against AVEFA in %: 80%
[15]; 320 g/ha, VERPE
  Post-emergence action against VERPE in %: 80%
[15]; dosage 80 g/ha
  Post-emergence action against VERPE in %: 80%
Viola tricolor (VIOTR) [16]; 320 g/ha, Viola tricolor
  Pre-emergence action against VIOTR in %: 100%
Viola tricolor (VIOTR) [16]; dosage 80 g/ha
  Pre-emergence action against VIOTR in %: 100%
Lolium rigidum (LOLRI) [17]; dosage 80 g/ha
  Pre-emergence action against LOLRI in %: 100%
Lolium rigidum (LOLRI) [17]; dosage 320 g/ha
  Pre-emergence action against LOLRI in %: 100%
Oryza sativa (ORYSA)
  Post-emergence action against ORYSA in %: 20%
Setaria viridis (SETVI) [18]; dosage 320 g/ha
  Post-emergence action against SETVI in %: 80%
Viola tricolor (VIOTR) [19]; 80 g/ha
  Post-emergence action against VIOTR in %: 80%
Viola tricolor (VIOTR) [19]; 320 g/ha
  Post-emergence action against VIOTR in %: 80%
[20]; dosage 80 g/ha
  Pre-emergence action against ECHCG in %: 80%
[20]; dosage 320 g/ha
  Pre-emergence action against ECHCG in %: 90%
[21]; dosage 80 g/ha
  Post-emergence action against ECHCG in %: 80%
[21]; dosage 320 g/ha
  Post-emergence action against ECHCG in %: 90%
Setaria viridis (SETVI) [22]; dosage 80 g/ha
  Pre-emergence action against SETVI in %: 80%
Setaria viridis (SETVI) [22]; dosage 320 g/ha
  Pre-emergence action against SETVI in %: 100%
[23]; 80 g/ha
  Post-emergence action against ABUTH in %: 80%
[23]; 320 g/ha
  Post-emergence action against ABUTH in %: 80%

## COC(=O)[C@@H](C)Oc1nn(-c2ncccc2F)c(-c2ccc(F)nc2)c1C1CC1 [Example I-307]
[1]; 80 g/ha, visual rating about 3 weeks after treatment vs untreated controls (100% = plants have died, 0% = like control plants)
  Post-emergence action against AMARE in %: 80%
[1]; [25]
  Post-emergence action against AMARE in %: 90%
[2]; 80 g/ha
  Pre-emergence action against ALOMY: 80%
[2]; 320 g/ha
  Pre-emergence action against ALOMY: 90%
[3]
  Post-emergence action against MATIN in %: 80%
[4]; 80 g/ha
  Pre-emergence action against AMARE in %: 100%
[4]; 320 g/ha
  Pre-emergence action against AMARE in %: 100%
[5]; 80 g/ha
  Post-emergence action against ALOMY in %: 100%
[5]; 320 g/ha
  Post-emergence action against ALOMY in %: 100%
[6]; dosage 80 g/ha
  Pre-emergence action against POLCO in %: 90%
[6]; dosage 320 g/ha
  Pre-emergence action against POLCO in %: 100%
[7]; dosage 320 g/ha
  Pre-emergence action against PHBPU in %: 90%
[8]; dosage 80 g/ha
  Post-emergence action against POLCO in %: 80%
[8]; dosage 320 g/ha
  Post-emergence action against POLCO in %: 80%
[9]
  Pre-emergence action against ABUTH: 80%
[10]; dosage 80 g/ha
  Pre-emergence action against MATIN in %: 90%
[10]; dosage 320 g/ha
  Pre-emergence action against MATIN in %: 100%
Lolium rigidum (LOLRI) [11]; dosage 80 g/ha
  Post-emergence action against LOLRI in %: 100%
Lolium rigidum (LOLRI) [11]; dosage 320 g/ha
  Post-emergence action against LOLRI in %: 100%
Avena fatua (AVEFA) [12]; 80 g/ha
  Pre-emergence action against AVEFA in %: 90%
Avena fatua (AVEFA) [12]; 320 g/ha
  Pre-emergence action against AVEFA in %: 100%
[13]; dosage 80 g/ha
  Pre-emergence action against VERPE in %: 90%
[13]; dosage 320 g/ha
  Pre-emergence action against VERPE in %: 100%
[24]; dosage 80 g/ha
  Post-emergence action against PHBPU in %: 80%
[24]; dosage 320 g/ha
  Post-emergence action against PHBPU in %: 90%
Avena fatua (AVEFA) [14]; 80 g/ha
  Post-emergence action against AVEFA in %: 90%
Avena fatua (AVEFA) [14]; 320 g/ha
  Post-emergence action against AVEFA in %: 90%
[15]; 320 g/ha, VERPE
  Post-emergence action against VERPE in %: 90%
[15]; dosage 80 g/ha
  Post-emergence action against VERPE in %: 90%
Viola tricolor (VIOTR) [16]; 320 g/ha, Viola tricolor
  Pre-emergence action against VIOTR in %: 100%
Viola tricolor (VIOTR) [16]; dosage 80 g/ha
  Pre-emergence action against VIOTR in %: 100%
Lolium rigidum (LOLRI) [17]; dosage 80 g/ha
  Pre-emergence action against LOLRI in %: 100%
Lolium rigidum (LOLRI) [17]; dosage 320 g/ha
  Pre-emergence action against LOLRI in %: 100%
Setaria viridis (SETVI) [18]; dosage 80 g/ha
  Post-emergence action against SETVI in %: 90%
Setaria viridis (SETVI) [18]; dosage 320 g/ha
  Post-emergence action against SETVI in %: 90%
Viola tricolor (VIOTR) [19]; 80 g/ha
  Post-emergence action against VIOTR in %: 80%
Viola tricolor (VIOTR) [19]; 320 g/ha
  Post-emergence action against VIOTR in %: 90%
[20]; dosage 80 g/ha
  Pre-emergence action against ECHCG in %: 100%
[20]; dosage 320 g/ha
  Pre-emergence action against ECHCG in %: 100%
[21]; dosage 80 g/ha
  Post-emergence action against ECHCG in %: 90%
[21]; dosage 320 g/ha
  Post-emergence action against ECHCG in %: 90%
Setaria viridis (SETVI) [22]; dosage 80 g/ha
  Pre-emergence action against SETVI in %: 100%
Setaria viridis (SETVI) [22]; dosage 320 g/ha
  Pre-emergence action against SETVI in %: 100%
[23]; 320 g/ha
  Post-emergence action against ABUTH in %: 90%
